The record followed here is PubChem BioAssay (NCI).

Test systems include COLO 205 colon; HOP-62 NSCLC; HT29 colon; MALME-3M melanoma; MOLT-4 leukemia; NCI-H226 lung; NCI-H460 lung; RPMI-8226 leukemia; SF-268 CNS; SK-MEL-28 melanoma; SN12C renal; SNB-19 CNS; SNB-75 CNS; U251 CNS; UACC-62 melanoma; A498 renal; CAKI-1 renal; UACC-257 melanoma.
Holding throughout (test): inhibition of tumour cell growth, NCI panel, 48 h

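48-hour exposure; five concentrations; linearly interpolated endpoints. TGI: concentration producing complete growth inhibition.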

Regarding `Nc1ccc2nc(NCc3ccc(F)cc3)cnc2c1`, the TGI in the test with COLO 205 colon, in the test with HOP-62 NSCLC, in the test with HT29 colon, in the test on MALME-3M melanoma, in the test with MOLT-4 leukemia and in the test on NCI-H226 lung was above 100 µM throughout. Moreover, the TGI with NCI-H460 lung, with RPMI-8226 leukemia, with SF-268 CNS, with SK-MEL-28 melanoma, with SN12C renal and in the test with SNB-19 CNS was above 100 µM each time. In addition, the TGI in the test with SNB-75 CNS, with U251 CNS and in the test with UACC-62 melanoma was above 100 µM in each case.
Turning to `O=C1[C@@H]2C(c3ccc(Cl)cc3Cl)=NO[C@@H]2C(=O)N1c1ccc(Cc2ccc(N3C(=O)[C@H]4C(c5ccc(Cl)cc5Cl)=NO[C@H]4C3=O)cc2)cc1`, the TGI with A498 renal, in the test on CAKI-1 renal, in the test with COLO 205 colon, in the test on HOP-62 NSCLC, in the test on HT29 colon and with MALME-3M melanoma was above 100 µM throughout. For the same molecule, the TGI with MOLT-4 leukemia, in the test on NCI-H226 lung, in the test on RPMI-8226 leukemia, with SF-268 CNS, in the test with SK-MEL-28 melanoma and with SN12C renal was above 100 µM throughout. Also, the TGI with SNB-75 CNS, with UACC-257 melanoma and in the test on UACC-62 melanoma was above 100 µM each time.
For `COc1ccc(/C=C2\C(=O)N(C)C(=O)c3cc(OC)c(OC)cc32)cc1OC`, the TGI with A498 renal was above 100 µM; in the test with CAKI-1 renal, above 100 µM; in the test with COLO 205 colon, 47.9 µM; with HOP-62 NSCLC, 90 µM; in the test on HT29 colon, 34.2 µM; in the test on MOLT-4 leukemia, above 100 µM. Further, the TGI was 34.7 µM in the test with NCI-H226 lung; above 100 µM in the test with NCI-H460 lung; 66.9 µM with RPMI-8226 leukemia; above 100 µM with SN12C renal; above 100 µM in the test on SNB-19 CNS; above 100 µM in the test on U251 CNS. The TGI with UACC-257 melanoma is above 100 µM; with UACC-62 melanoma, 94 µM.
In the case of `N#CC(C(=O)/C(=N/NC(=O)c1ccccc1O)C(C#N)c1ccccc1)c1ccccc1` (centres undefined), the TGI with A498 renal, with COLO 205 colon, with HOP-62 NSCLC, with HT29 colon, with MALME-3M melanoma and with NCI-H226 lung was above 100 µM each time. The TGI with NCI-H460 lung, in the test with RPMI-8226 leukemia, in the test with SF-268 CNS, with SK-MEL-28 melanoma, in the test with SN12C renal and with SNB-75 CNS was above 100 µM each time. For the same molecule, the TGI with U251 CNS, with UACC-257 melanoma and in the test on UACC-62 melanoma was above 100 µM throughout.
`Cc1ccc(N=NC2S/C(=C(\C#N)c3nc4ccccc4[nH]3)N(c3ccccc3)C2=O)cc1` (centres undefined): the TGI in the test on A498 renal was above 100 µM; with CAKI-1 renal, above 100 µM; in the test on COLO 205 colon it was above 100 µM; with HOP-62 NSCLC, 81.1 µM; with HT29 colon, above 100 µM; in the test with MALME-3M melanoma it was above 100 µM. For the same molecule, the TGI with NCI-H226 lung, in the test with NCI-H460 lung, in the test with SF-268 CNS, with SK-MEL-28 melanoma, with SN12C renal and in the test with SNB-19 CNS was above 100 µM in each case. Further, the TGI in the test with SNB-75 CNS is 82.5 µM; with U251 CNS it was above 100 µM; with UACC-257 melanoma, above 100 µM; in the test with UACC-62 melanoma it was above 100 µM.
Regarding `COc1ccccc1/C=C(\C#N)C(=O)c1ccccc1`, the TGI with A498 renal, in the test on CAKI-1 renal, in the test with COLO 205 colon, in the test on HOP-62 NSCLC, with HT29 colon and in the test with MALME-3M melanoma was above 100 µM each time. Also, the TGI with MOLT-4 leukemia, in the test on NCI-H226 lung, with NCI-H460 lung, in the test with RPMI-8226 leukemia, in the test on SF-268 CNS and in the test with SK-MEL-28 melanoma was above 100 µM each time. Also, the TGI in the test on SN12C renal, with SNB-19 CNS, in the test with U251 CNS, with UACC-257 melanoma and in the test with UACC-62 melanoma was above 100 µM in each case.
With `CC(=O)O[C@]12CCCCC1C1(O)C(O)CCCCC12` (some centres undefined), the TGI in the test with COLO 205 colon, with HOP-62 NSCLC, with HT29 colon, in the test with MALME-3M melanoma, with MOLT-4 leukemia and in the test with NCI-H226 lung was above 100 µM each time. In addition, the TGI in the test with NCI-H460 lung, with RPMI-8226 leukemia, in the test on SF-268 CNS, in the test on SK-MEL-28 melanoma, in the test with SN12C renal and in the test on SNB-19 CNS was above 100 µM in each case. For the same molecule, the TGI in the test on SNB-75 CNS, in the test with U251 CNS, with UACC-257 melanoma and with UACC-62 melanoma was above 100 µM in each case.
As to `NC(=O)C#CC#CC#CCO`, the TGI in the test with A498 renal amounted to 14.9 µM; with COLO 205 colon, 2.65 µM; in the test with HOP-62 NSCLC it was 23.1 µM; in the test on HT29 colon it was 4.04 µM; in the test with MALME-3M melanoma it was 3.72 µM; in the test with MOLT-4 leukemia, 2.67 µM. Besides, the TGI with NCI-H226 lung came to 27.5 µM; with NCI-H460 lung, 19.3 µM; with SK-MEL-28 melanoma, 3.58 µM; in the test on SN12C renal, 3.76 µM; in the test with SNB-19 CNS, 29.6 µM; in the test with U251 CNS it was 3.72 µM. The TGI stood at 5.87 µM with UACC-257 melanoma and 4.32 µM with UACC-62 melanoma.
As to `CN(C)CCC(O)(c1ccccc1)C(O)(CCN(C)C)c1ccccc1` (centres undefined), the TGI in the test on A498 renal is above 100 µM; with CAKI-1 renal, above 100 µM; in the test on COLO 205 colon, above 100 µM; in the test on HOP-62 NSCLC, above 100 µM; in the test on HT29 colon it was above 100 µM; in the test with MALME-3M melanoma it was 32.6 µM. Also, the TGI in the test with MOLT-4 leukemia, in the test with NCI-H460 lung, in the test with RPMI-8226 leukemia, with SF-268 CNS, in the test on SK-MEL-28 melanoma and in the test with SN12C renal was above 100 µM throughout. In addition, the TGI in the test with SNB-19 CNS is above 100 µM; in the test with SNB-75 CNS, above 100 µM; in the test with U251 CNS it was above 100 µM; in the test on UACC-257 melanoma it was 56.7 µM; with UACC-62 melanoma it was above 100 µM.
